Experimental data as given in PMC6268642, “Facile Synthesis and Herbicidal Evaluation of 4H-3,1-Benzoxazin-4-ones and 3H-Quinazolin-4-ones with 2-Phenoxymethyl Substituents” (Molecules, 2012).
Where two headings read alike, the source gives them in different places.

Experiments:
rape Brassica napus = assay: Petri dish culture, growth inhibition of root and stalk of rape; assay type: in vivo; conditions: 5 days; for inhibition at 1 µg/mL / inhibition at 10 µg/mL: Brassica napus, 120 h
Protocol: (§1) The synthesized compounds were tested for the herbicidal activity on model plants including a monocotyledon (barnyard grass) and a dicotyledon (rape) by the reported Petri dish culture method. The percent inhibitory ratios against the growth of root and stalk of barnyard grass and rape at different dosage concentrations were calculated, and the compounds with appreciable inhibitory potencies are selected and shown in Table 1 and Table 2. Several features of the inhibitory activities can be derived. First, all the compounds have stronger inhibition against the growth of the dicotyledon rape than against the monocotyledon barnyard grass, showing appreciable selectivity.
(§2) The herbicidal activity was examined for the growth inhibition effect of the dicotyledon rape Brassica napus and the monocotyledon barnyard grass Echinochloa crusgalli, using the standard Petri dish test and the pre-emergence treatment procedure. […] Nine mL of the solution was added in a Petri dish of 9 cm diameter and two pieces of filter paper were placed on the dish bottom. Twenty seeds each of rape and barnyard grass were placed on the filter paper. The covered Petri dish was transferred into an artificial climate incubator (MGC-400H, Shantou Keyi Co., Ltd., China), where the conditions were controlled at temperature 23 ± 1 °C, humidity 60 ± 5%, light intensity 10 Klux, and photoperiod 12 h/day. The incubation was continued for 5 days, then the lengths of 10 roots and 10 stems for each type of plant were measured and the mean values were calculated. The percent inhibitory ratios were calculated relative to control plants exposing to distilled water instead of the compound solution.

[1] = test system: barnyard grass Echinochloa crusgalli; assay: Petri dish culture, growth inhibition of root and stalk of barnyard grass; assay type: in vivo; conditions: 5 days; for inhibition at 1 µg/mL / inhibition at 10 µg/mL: Echinochloa crus-galli, 120 h
Protocol: as §1, §2

[2] = 1 mg/L, root growth, read-out: Relative inhibition, root
[3] = 1 mg/L, stalk growth, read-out: Relative inhibition, stalk
[4] = 10 mg/L, root growth, read-out: Relative inhibition, root
[5] = 10 mg/L, stalk growth, read-out: Relative inhibition, stalk

Molecule | inhibition at 1 µg/mL (rape Brassica napus; [2]) | inhibition at 1 µg/mL (rape Brassica napus; [3]) | inhibition at 10 µg/mL (rape Brassica napus; [4]) | inhibition at 10 µg/mL (rape Brassica napus; [5]) | inhibition at 1 µg/mL [1, 2] | inhibition at 1 µg/mL [1, 3] | inhibition at 10 µg/mL [1, 4] | inhibition at 10 µg/mL [1, 5] | melting point | Relative inhibition, root (rape Brassica napus; 1 mg/L, root growth) | Relative inhibition, stalk (rape Brassica napus; 1 mg/L, stalk growth) | Relative inhibition, root (rape Brassica napus; 10 mg/L, root growth) | Relative inhibition, stalk (rape Brassica napus; 10 mg/L, stalk growth) | Relative inhibition, root ([1]; 1 mg/L, root growth) | Relative inhibition, stalk ([1]; 1 mg/L, stalk growth) | Relative inhibition, root ([1]; 10 mg/L, root growth) | Relative inhibition, stalk ([1]; 10 mg/L, stalk growth)
COc1cc2nc(COc3ccc(Cl)cc3)n(C)c(=O)c2cc1OC [4o, 2-((4-Chlorophenoxy)methyl)-6,7-dimethoxy-3-methyl-3H-quinazolin-4-one] | 25.1% | 1.9% | 34.8% | -6.8% | 13.3% | 8.9% | 17.3% | 5.9% | 201.8 to 202.7 °C | – | – | – | – | – | – | – | –
COc1cc2nc(COc3ccc(Cl)cc3)n(N)c(=O)c2cc1OC [4e, 3-Amino-2-((4-chlorophenoxy)methyl)-6,7-dimethoxy-3H-quinazolin-4-one] | 21.9% | 1.5% | 30.8% | 6.4% | 13.8% | 2.9% | 23.3% | 11.9% | 202.8 to 204.1 °C | – | – | – | – | – | – | – | –
Nn1c(COc2ccc(Cl)cc2Cl)nc2ccc(Cl)cc2c1=O [4h, 3-Amino-6-chloro-2-((2,4-dichlorophenoxy)methyl)-3H-quinazolin-4-one] | 7.5% | 10.7% | 22% | 19.9% | 20% | -42% | 37.5% | -12.7% | 223.6 to 224.9 °C | – | – | – | – | – | – | – | –
COc1cc2nc(COc3ccc(F)cc3)oc(=O)c2cc1OC [3w, 2-((4-Fluorophenoxy)methyl)-6,7-dimethoxy-4H-3,1-benzoxazin-4-one] | 35.2% | 12.8% | 79.7% | 41.4% | 37.5% | 12.8% | 64.5% | 16.4% | 144.7 to 146 °C | – | – | – | – | – | – | – | –
O=c1oc(COc2ccc(Cl)cc2)nc2cc(Cl)ccc12 [3j, 7-Chloro-2-((4-chlorophenoxy)methyl)-4H-3,1-benzoxazin-4-one] | 91.4% | 59.5% | 100% | 91.1% | 43.6% | 12.8% | 92.3% | 31.1% | 189.9 to 191.8 °C | – | – | – | – | – | – | – | –
O=c1oc(COc2ccc(F)cc2)nc2ccc(Cl)cc12 [3t, 6-Chloro-2-((4-fluorophenoxy)methyl)-4H-3,1-benzoxazin-4-one] | 85.5% | 60% | 99.3% | 91.7% | 66.3% | 36.4% | 93.2% | 49.1% | 159.8 to 161.7 °C | – | – | – | – | – | – | – | –
Cc1ccc2nc(COc3ccc(F)cc3)oc(=O)c2c1 [3v, 2-((4-Fluorophenoxy)methyl)-6-methyl-4H-3,1-benzoxazin-4-one] | 87.7% | 61% | 99.3% | 93.7% | 69.9% | 24.1% | 92.2% | 31.7% | 130.8 to 131.9 °C | – | – | – | – | – | – | – | –
O=c1oc(COc2ccc(F)cc2)nc2cccc(Cl)c12 [3s, 5-Chloro-2-((4-fluorophenoxy)methyl)-4H-3,1-benzoxazin-4-one] | 72.8% | 25.7% | 98.6% | 94.8% | 61.1% | 11.8% | 91% | 46.3% | 155.9 to 156.7 °C | – | – | – | – | – | – | – | –
Cn1c(COc2ccc(Cl)cc2)nc2ccc(Cl)cc2c1=O [4l, 6-Chloro-2-((4-chlorophenoxy)methyl)-3-methyl-3H-quinazolin-4-one] | 28.5% | 1.5% | 42.2% | 10.8% | 24.7% | 8.9% | 33.7% | 11.9% | 179.9 to 181.2 °C | – | – | – | – | – | – | – | –
Cc1ccc2nc(COc3ccccc3)oc(=O)c2c1 [3e, 6-Methyl-2-(phenoxymethyl)-4H-3,1-benzoxazin-4-one] | 55.3% | 11.6% | 92.3% | 81.6% | 26.1% | -17.2% | 71.4% | 31.1% | 133.3 to 135.1 °C | – | – | – | – | – | – | – | –
Cn1c(COc2ccc(Cl)cc2Cl)nc2ccc(Cl)cc2c1=O [4q, 6-Chloro-2-((2,4-dichlorophenoxy)methyl)-3-methyl-3H-quinazolin-4-one] | 8.1% | 14.4% | 19.3% | 38.9% | 24.3% | 5.4% | 31.9% | -3.6% | 240.1 to 241.8 °C | – | – | – | – | – | – | – | –
Cc1ccc2nc(COc3ccc(Cl)cc3)n(C)c(=O)c2c1 [4n, 2-((4-Chlorophenoxy)methyl)-3,6-dimethyl-3H-quinazolin-4-one] | 39.4% | 7.8% | 45% | 16.6% | 26.7% | 14.9% | 43.5% | 14.9% | 196.4 to 197.6 °C | – | – | – | – | – | – | – | –
Cc1ccc2nc(COc3ccc(Cl)cc3)oc(=O)c2c1 [3k, 2-((4-Chlorophenoxy)methyl)-6-methyl-4H-3,1-benzoxazin-4-one] | 84.7% | 29.3% | 100% | 82.1% | 48.4% | 18.2% | 77.1% | -8.8% | 143.7 to 145.6 °C | – | – | – | – | – | – | – | –
Nn1c(COc2ccc(Cl)cc2)nc2ccc(Cl)cc2c1=O [4b, 3-Amino-6-chloro-2-((4-chlorophenoxy)methyl)-3H-quinazolin-4-one] | 27.7% | 14.7% | 46.8% | 13.2% | 33.2% | 20.9% | 9.9% | 11.9% | 178.1 to 179.4 °C | – | – | – | – | – | – | – | –
O=c1oc(COc2ccccc2)nc2cccc(Cl)c12 [3b, 5-Chloro-2-(phenoxymethyl)-4H-3,1-benzoxazin-4-one] | 59.6% | 39.2% | 83.3% | 51.9% | 47.2% | 0.5% | 56.3% | 24.1% | 118.3 to 120.9 °C | – | – | – | – | – | – | – | –
Nn1c(COc2ccc(Cl)cc2)nc2cccc(Cl)c2c1=O [4a, 3-Amino-5-chloro-2-((4-chlorophenoxy)methyl)-3H-quinazolin-4-one] | 28.5% | 13.2% | 41.5% | -5.9% | 57.9% | 8.9% | 43.1% | 14.9% | 191.8 to 193.3 °C | – | – | – | – | – | – | – | –
O=c1oc(COc2ccccc2)nc2cc(Cl)ccc12 [3d, 7-Chloro-2-(phenoxymethyl)-4H-3,1-benzoxazin-4-one] | 75.5% | 44.9% | 93.5% | 71.6% | 41.9% | -23.6% | 62.3% | 28.3% | 117.3 to 119.9 °C | – | – | – | – | – | – | – | –
COc1cc2nc(COc3ccc(Cl)cc3Cl)n(C)c(=O)c2cc1OC [4s, 2-((2,4-Dichlorophenoxy)methyl)-6,7-dimethoxy-3-methyl-3H-quinazolin-4-one] | 7.1% | 8.1% | 20.7% | 20.3% | 30% | -20.3% | 52.2% | -54.5% | 243.9 to 245.2 °C | – | – | – | – | – | – | – | –
7-Chloro-2-((2,4-dichlorophenoxy)methyl)-3-methyl-3H-quinazolin-4-one [4r] | – | – | – | – | – | – | – | – | – | 32.3% | −8.8% | 44.5% | −2.4% | 12.3% | 1.4% | 34.6% | 0.0%
